According to PubChem BioAssay (NCI):
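Tested at 5 concentrations; 48 h exposure; 96-well plates; endpoints linearly interpolated, else capped at highest concentration. GI50 = concentration required for 50% inhibition of growth. TGI: total growth inhibition.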

Key:
Experiment in all cases: NCI anticancer screen, dose series, 48 h
[1] = test system: MCF7 breast
[2] = test system: SK-MEL-28 melanoma
[3] = test system: SF-295 CNS
[4] = test system: T-47D breast
[5] = test system: KM12 colon
[6] = test system: PC-3 prostate
[7] = test system: HOP-92 NSCLC
[8] = test system: SK-MEL-2 melanoma
[9] = test system: K-562 leukemia
[10] = test system: HCC-2998 colon
[11] = test system: SK-OV-3 ovarian
[12] = test system: A498 renal
[13] = test system: SW-620 colon
[14] = test system: NCI-H23 lung
[15] = test system: MOLT-4 leukemia
[16] = test system: HOP-62 NSCLC
[17] = test system: IGROV1 ovarian
[18] = test system: HCT-15 colon
[19] = test system: SN12C renal
[20] = test system: DU-145 prostate
[21] = test system: NCI-H460 lung
[22] = test system: MDA-MB-231 breast
[23] = test system: SF-539 CNS
[24] = test system: M14 melanoma
[25] = test system: HCT-116 colon
[26] = test system: 786-0 renal
[27] = test system: COLO 205 colon
[28] = test system: MDA-MB-435
[29] = test system: EKVX NSCLC
[30] = test system: UACC-62 melanoma
[31] = test system: BT-549 breast
[32] = test system: CAKI-1 renal
[33] = test system: UO-31 renal
[34] = test system: MALME-3M melanoma
[35] = test system: SK-MEL-5 melanoma
[36] = test system: UACC-257 melanoma
[37] = test system: ACHN renal
[38] = test system: SF-268 CNS
[39] = test system: TK-10 renal
[40] = test system: RXF 393 renal
[41] = test system: CCRF-CEM leukemia
[42] = test system: NCI/ADR-RES ovarian
[43] = test system: A549 NSCLC
[44] = test system: RPMI-8226 leukemia
[45] = test system: SR leukemia
[46] = test system: U251 CNS
[47] = test system: OVCAR-8 ovarian
[48] = test system: SNB-75 CNS
[49] = test system: HL-60(TB) leukemia
[50] = test system: HT29 colon
[51] = test system: HS 578T breast
[52] = test system: OVCAR-5 ovarian
[53] = test system: OVCAR-4 ovarian
[54] = test system: NCI-H226 lung
[55] = test system: NCI-H522 lung
[56] = test system: SNB-19 CNS

In the case of `O=C(Nc1cccc(C(F)(F)F)c1)c1cc(-c2ccc(F)cc2F)ccc1O`, the GI50 [1] is reported as 2180 nM, the TGI [1] is reported as 9.29 µM and the GI50 [2] is reported as 2170 nM. For the same compound, the TGI [2] was 7.58 µM, the GI50 [3] was 1750 nM and the TGI [3] was 3.57 µM. It also gave a GI50 [4] of 2200 nM, a TGI [4] of 8.64 µM and a GI50 [5] of 2440 nM. It also gave a TGI [5] of 6.12 µM, a GI50 [6] of 2890 nM and a TGI [6] of 15.1 µM. It also gave a GI50 [7] of 824 nM, a TGI [7] of 4.28 µM and a GI50 [8] of 1460 nM. For the same compound, the TGI [8] was 4.95 µM, the GI50 [9] was 2230 nM and the TGI [9] was > 100 µM. The GI50 [10] was 3.07 µM, the TGI [10] was 13.2 µM and the GI50 [11] was 2430 nM. The TGI [11] was 8.62 µM, the GI50 [12] was 923 nM and the TGI [12] was 3.21 µM. For the same compound, the GI50 [13] was 3.61 µM, the TGI [13] was 14.5 µM and the GI50 [14] was 1890 nM. It also gave a TGI [14] of 5.58 µM, a GI50 [15] of 2130 nM and a TGI [15] of 5.58 µM. The GI50 [16] was 2930 nM, the TGI [16] was 9.31 µM and the GI50 [17] was 2820 nM. It also gave a TGI [17] of 17 µM, a GI50 [18] of 2210 nM and a TGI [18] of 6.99 µM. For the same compound, the GI50 [19] was 1990 nM, the TGI [19] was 7.61 µM and the GI50 [20] was 3.55 µM. The TGI [20] was > 100 µM, the GI50 [21] was 2670 nM and the TGI [21] was 13.3 µM. The GI50 [22] was 2010 nM, the TGI [22] was 5.17 µM and the GI50 [23] was 3.05 µM. The TGI [23] was 11 µM, the GI50 [24] was 3.02 µM and the TGI [24] was 10.5 µM. It also gave a GI50 [25] of 1890 nM, a TGI [25] of 4.98 µM and a GI50 [26] of 3.27 µM. The TGI [26] was 12 µM, the GI50 [27] was 3.22 µM and the TGI [27] was 10.2 µM. It also gave a GI50 [28] of 2500 nM, a TGI [28] of 7.11 µM and a GI50 [29] of 2280 nM. For the same compound, the TGI [29] was 8.98 µM, the GI50 [30] was 1160 nM and the TGI [30] was 4.22 µM. For the same compound, the GI50 [31] was 2130 nM, the TGI [31] was 7.24 µM and the GI50 [32] was 1790 nM. The TGI [32] was 5.69 µM, the GI50 [33] was 2460 nM and the TGI [33] was 10.6 µM. It also gave a GI50 [34] of 1770 nM, a TGI [34] of 4.65 µM and a GI50 [35] of 1250 nM. The TGI [35] was 2860 nM, the GI50 [36] was 1500 nM and the TGI [36] was 6.97 µM. For the same compound, the GI50 [37] was 2760 nM, the TGI [37] was 8.67 µM and the GI50 [38] was 2670 nM. For the same compound, the TGI [38] was 16.7 µM, the GI50 [39] was 4.55 µM and the TGI [39] was 30.5 µM. It also gave a GI50 [40] of 2060 nM, a TGI [40] of 6.22 µM and a GI50 [41] of 2970 nM. The TGI [41] was 48.6 µM, the GI50 [42] was 2570 nM and the TGI [42] was 8.63 µM. For the same compound, the GI50 [43] was 3.26 µM, the TGI [43] was > 100 µM and the GI50 [44] was 1440 nM. The TGI [44] was 5.28 µM, the GI50 [45] was 2760 nM and the TGI [45] was 14 µM. It also gave a GI50 [46] of 2990 nM, a TGI [46] of 17.5 µM and a GI50 [47] of 2920 nM. The TGI [47] was > 100 µM, the GI50 [48] was 1520 nM and the TGI [48] was 4.25 µM. It also gave a GI50 [49] of 2060 nM, a TGI [49] of 4.97 µM and a GI50 [50] of 3.27 µM. The TGI [50] was 16.9 µM, the GI50 [51] was 2470 nM and the TGI [51] was 9.63 µM. The GI50 [52] was 3.41 µM, the TGI [52] was 26.4 µM and the GI50 [53] was 3.11 µM. The TGI [53] was 95.7 µM, the GI50 [54] was 2010 nM and the TGI [54] was 5.34 µM. The GI50 [55] was 1320 nM, the TGI [55] was 9.58 µM and the GI50 [56] was 3.08 µM. It also gave a TGI [56] of 73.5 µM.
